Measured values published in PubChem BioAssay AID328 (DTP/NCI, 2004).
Values joined by “and” are separate entries in the source; they are usually repeats but may differ in a detail not shown here. Equal entries are not always repeated. Inconclusive results and toxic doses are left out. How the source made its calls: active means survival T/C of 150% or more; inactive means T/C below 125% in these data. Starred links: 1 amine or outer side, 2 acyl side, 3 side chain; linkers in the order of their positions; H or OH if unused. Positions of bridges follow the written chain, without caps; N, C: chain ends. Non-standard residues stand in square brackets, D forms with d. Residues, ends and D or L forms follow the SMILES beside them. Chains are numbered I, II in the order given. Actinocin(9to1) = Cc1c2oc3c(C)ccc(C(=O)[*:1])c3nc-2c(C(=O)[*:2])c(N)c1=O; NMeV = CN[CH](C(=O)O)C(C)C; Sar = CNCC(=O)O

Tested on: BDF1 mice, P388 leukemia ip, median survival T/C
Assay: NCI In Vivo Anticancer Drug Screen. Data for tumor model P388 Leukemia (intraperitoneal) in B6D2F1 (BDF1) mice
Conditions: endpoint: median survival time, higher = longer survival
How it was run: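 In tumour-bearing mice, survival after compound treatment is set against the vehicle group and given as a quotient.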

[1] = dose: 12.5 mg/kg/injection, schedule: Q01DX009 (ip), vehicle: saline with Tween-80
[2] = dose: 25.0 mg/kg/injection, schedule: Q01DX009 (ip), vehicle: saline with Tween-80
[3] = dose: 50.0 mg/kg/injection, schedule: Q01DX009 (ip), vehicle: saline with Tween-80
[4] = dose: 100.0 mg/kg/injection, schedule: Q01DX009 (ip), vehicle: saline with Tween-80
[5] = dose: 200.0 mg/kg/injection, schedule: Q01DX009 (ip), vehicle: saline with Tween-80
[6] = dose: 50.0 mg/kg/injection, schedule: Q01DX005 (ip), vehicle: saline with Tween-80
[7] = dose: 200.0 mg/kg/injection, schedule: Q01DX005 (ip), vehicle: saline with Tween-80
[8] = dose: 6.25 mg/kg/injection, schedule: Q01DX009 (ip), vehicle: water
[9] = dose: 12.5 mg/kg/injection, schedule: Q01DX009 (ip), vehicle: water
[10] = dose: 6.25 mg/kg/injection, schedule: Q01DX009 (ip), vehicle: saline with Tween-80

Measured: T/C

Nc1nc(N)c2cc(CNc3ccc(Cl)c(C(=O)NC(CC(=O)O)C(=O)O)c3)cnc2n1 (stereo not drawn)
inactive: dose: 100.0 mg/kg/injection, schedule: Q01DX009 (ip), vehicle: saline 100 % of control | dose: 100.0 mg/kg/injection, schedule: Q04DX003 (ip), vehicle: saline 102 % of control | dose: 200.0 mg/kg/injection, schedule: Q01DX009 (ip), vehicle: saline 100 % of control | dose: 200.0 mg/kg/injection, schedule: Q04DX003 (ip), vehicle: saline 99 % of control | dose: 400.0 mg/kg/injection, schedule: Q01DX009 (ip), vehicle: saline 108 % of control | dose: 400.0 mg/kg/injection, schedule: Q04DX003 (ip), vehicle: saline 94 % of control

CC1C[N+](C)(C)NC1=O (stereo not drawn)
inactive: dose: 50.0 mg/kg/injection, schedule: Q01DX001 (ip), vehicle: saline 100 % of control | dose: 200.0 mg/kg/injection, schedule: Q01DX001 (ip), vehicle: saline 100 % of control

Cc1ccc(NS(=O)(=O)c2ccc(F)cc2)c(C)c1
inactive: dose: 100.0 mg/kg/injection, schedule: Q04DX003 (ip), vehicle: Klucel (hydroxypropylcellulose) (HPC) 100 % of control | dose: 200.0 mg/kg/injection, schedule: Q04DX003 (ip), vehicle: Klucel (hydroxypropylcellulose) (HPC) 100 % of control | dose: 400.0 mg/kg/injection, schedule: Q04DX003 (ip), vehicle: Klucel (hydroxypropylcellulose) (HPC) 100 % of control

CC(CC(O)C(C)(C)C)C(C)(C)C (stereo not drawn)
inactive: [1] 117 % of control | [2] 110 % of control | [3] 117 % of control

COC(=O)C1C2CCc3cc(OC)ccc3C2CCC1(C)C(=O)O (stereo not drawn)
inactive: dose: 100.0 mg/kg/injection, schedule: Q01DX001 (ip), vehicle: saline sonified 100 % of control | dose: 200.0 mg/kg/injection, schedule: Q01DX001 (ip), vehicle: saline sonified 104 % of control | dose: 400.0 mg/kg/injection, schedule: Q01DX001 (ip), vehicle: saline sonified 100 % of control

CCCC(=O)OCC1OC(n2cnc3c(=S)nc(N)[nH]c32)C(OC(=O)CCC)C1OC(=O)CCC (stereo not drawn)
active: dose: 16.5 mg/kg/injection, schedule: Q04DX003 (ip), vehicle: saline with Tween-80 177 % of control | dose: 25.0 mg/kg/injection, schedule: Q04DX003 (ip), vehicle: saline with Tween-80 154 % of control | dose: 37.5 mg/kg/injection, schedule: Q04DX003 (ip), vehicle: saline with Tween-80 161 % of control

CS(=O)c1ccccc1C(=O)O (stereo not drawn)
inactive: dose: 100.0 mg/kg/injection, schedule: Q04DX003 (ip), vehicle: saline with Tween-80 106 % of control | dose: 200.0 mg/kg/injection, schedule: Q04DX003 (ip), vehicle: saline with Tween-80 110 % of control | dose: 400.0 mg/kg/injection, schedule: Q04DX003 (ip), vehicle: saline with Tween-80 109 % of control

C=C1C(=O)OC2C3OC(C)(CCC(OC(C)=O)C3COC(C)=O)CC(OC(=O)/C(=C\C)COC(C)=O)C12 (stereo not drawn)
inactive: dose: 25.0 mg/kg/injection, schedule: Q01DX009 (ip), vehicle: Klucel (hydroxypropylcellulose) (HPC) 106 % of control | dose: 50.0 mg/kg/injection, schedule: Q01DX009 (ip), vehicle: Klucel (hydroxypropylcellulose) (HPC) 106 % of control | dose: 100.0 mg/kg/injection, schedule: Q01DX009 (ip), vehicle: Klucel (hydroxypropylcellulose) (HPC) 118 % of control

O=C1c2ccccc2C(=O)c2c(O)ccc(O)c21
inactive: [4] 104 % of control | [5] 109 % of control | dose: 400.0 mg/kg/injection, schedule: Q01DX009 (ip), vehicle: saline with Tween-80 109 % of control

CCOC(=O)C1=C(N)n2c(s/c(=C/c3ccc(N(C)C)cc3)c2=O)=C(C(=O)OCC)C1c1ccc(N(C)C)cc1 (stereo not drawn)
inactive: [6] 101 % of control | dose: 100.0 mg/kg/injection, schedule: Q01DX005 (ip), vehicle: saline with Tween-80 97 % of control | [7] 99 % of control

Cc1ccc(C(=O)CO)cc1
inactive: [3] 98 % of control | [4] 102 % of control | [5] 98 % of control

Cc1cc(Oc2ccc(Cl)cc2NC(=O)Nc2cccc(C(F)(F)F)c2)cc(S(=O)(=O)O)c1Cl
inactive: dose: 25.0 mg/kg/injection, schedule: Q01DX001 (ip), vehicle: other 100 % of control | dose: 50.0 mg/kg/injection, schedule: Q01DX001 (ip), vehicle: other 108 % of control | dose: 100.0 mg/kg/injection, schedule: Q01DX001 (ip), vehicle: other 100 % of control

O=C(CI)Nc1ccc(O)c2ccccc12
inactive: dose: 0.78 mg/kg/injection, schedule: Q01DX009 (ip), vehicle: water 97 % of control | dose: 1.56 mg/kg/injection, schedule: Q01DX009 (ip), vehicle: water 106 % of control | dose: 3.12 mg/kg/injection, schedule: Q01DX009 (ip), vehicle: water 106 % of control | [8] 108 % of control | dose: 6.25 mg/kg/injection, schedule: Q04DX003 (ip), vehicle: water 89 % of control | [9] 123 % of control | dose: 12.5 mg/kg/injection, schedule: Q04DX003 (ip), vehicle: water 99 % of control | dose: 25.0 mg/kg/injection, schedule: Q04DX003 (ip), vehicle: water 104 % of control

Cc1c2oc3c(C)ccc(C(=O)NC4C(=O)NC(C(C)C)C(=O)N(C)CC(=O)N(C)CC(=O)N(C)C(C(C)C)C(=O)OC4C)c3nc-2c(C(=O)NC2C(=O)NC(C(C)C)C(=O)N(C)CC(=O)N(C)CC(=O)N(C)C(C(C)C)C(=O)OC2C)c(N)c1=O (stereo not drawn) (I: TV[Sar][Sar][NMeV] / II: TV[Sar][Sar][NMeV]; ester I:1-I:C, II:1-II:C; linker I:N-II:N via Actinocin(9to1); configuration not given here)
active: dose: 125.0 micrograms/kg/injection, schedule: Q01DX009 (ip), vehicle: saline + alcohol 190 % of control | dose: 250.0 micrograms/kg/injection, schedule: Q01DX009 (ip), vehicle: saline + alcohol 233 % of control | dose: 500.0 micrograms/kg/injection, schedule: Q01DX009 (ip), vehicle: saline + alcohol 239 % of control | dose: 750.0 micrograms/kg/injection, schedule: Q04DX003 (ip), vehicle: saline + alcohol 218 % of control | dose: 1500.0 micrograms/kg/injection, schedule: Q04DX003 (ip), vehicle: saline + alcohol 239 % of control and 166 % of control | dose: 3000.0 micrograms/kg/injection, schedule: Q04DX003 (ip), vehicle: saline + alcohol 175 % of control

CC(=O)Nc1ccc2nc3ccc(NC(C)=O)cc3[n+](-c3ccccc3)c2c1
active: dose: 31.3 mg/kg/injection, schedule: Q01DX010 (ip), vehicle: saline 168 % of control | dose: 62.5 mg/kg/injection, schedule: Q01DX010 (ip), vehicle: saline 172 % of control | dose: 125.0 mg/kg/injection, schedule: Q01DX010 (ip), vehicle: saline 181 % of control | dose: 250.0 mg/kg/injection, schedule: Q01DX010 (ip), vehicle: saline 150 % of control

CCCN1CCC2(CC1)COCc1ccccc12
inactive: dose: 50.0 mg/kg/injection, schedule: Q04DX002 (ip), vehicle: saline with Tween-80 98 % of control | dose: 100.0 mg/kg/injection, schedule: Q04DX002 (ip), vehicle: saline with Tween-80 91 % of control

COC(=O)c1cc(=O)nc(N/N=C/c2ccc3c(c2)OCO3)s1
inactive: [6] 92 % of control | [7] 96 % of control

O=C(C=C(C(F)(F)F)C(F)(F)F)c1ccc(Cl)cc1
inactive: [10] 100 % of control | [1] 100 % of control | [2] 118 % of control

C[Si](C)(OC(=O)N(CCCl)CCCl)O[Si](C)(C)OC(=O)N(CCCl)CCCl
inactive: [10] 110 % of control
active: [2] 185 % of control | [3] 208 % of control

O=C(CO)c1ccccc1
inactive: [10] 93 % of control | [1] 95 % of control | [2] 93 % of control | [3] 104 % of control

OCCN(CCO)c1cc(OCc2ccccc2)cc(OCc2ccccc2)c1
inactive: [8] 103 % of control | [9] 99 % of control | dose: 25.0 mg/kg/injection, schedule: Q01DX009 (ip), vehicle: water 91 % of control and 103 % of control | dose: 50.0 mg/kg/injection, schedule: Q01DX009 (ip), vehicle: water 100 % of control | dose: 50.0 mg/kg/injection, schedule: Q04DX003 (ip), vehicle: water 100 % of control | dose: 100.0 mg/kg/injection, schedule: Q04DX003 (ip), vehicle: water 100 % of control | dose: 200.0 mg/kg/injection, schedule: Q04DX003 (ip), vehicle: water 95 % of control | dose: 400.0 mg/kg/injection, schedule: Q04DX003 (ip), vehicle: water 100 % of control
